In US20070037875A1, “Genistein inhibition of transthyretin amyloidosis” (The Scripps Research Institute, priority 2005, published 2007):
Like-named read-outs stand apart in the source and are kept apart here.

Assays:
[1] = tested on: Caco-2 cells; details: Caco-2 cells and perfused rat intestinal models; cited from earlier work
[2] = biological target: T1, WT TTR (Homo sapiens, UniProt P02766); assay: Stagnant transthyretin aggregation (fibril formation) assay, turbidity; assay type: biochemical
T1 construct: made in house; host or cells: E. coli
Protocol: Stagnant aggregation assays were performed as described previously (Lashuel, H. A.; et al. Biochemistry 1999, 38, 13560-13573). A 0.495 mL sample of TTR (7.6 μM (0.4 mg/mL) in 10 mM sodium phosphate, 100 mM KCl, and 1 mM EDTA at pH 7.0) was incubated with 5 μL of isoflavone or flavone inhibitor in DMSO (0.76 mM or 1.44 mM). After 30 min, the samples were diluted with 0.5 mL of 200 mM acetate buffer (pH 4.2, final pH 4.4 for WT and V122I, pH 4.8, final pH 5.0 for V30M) containing 100 mM KCl and 1 mM EDTA. Samples were briefly vortexed and then further incubated at 37° C. for 72 h without stirring. The extent of aggregation was probed by turbidity measurements at 350 and 400 nm on an HP 8453 UV-visible spectrometer. Single-time point samples (72 h) were vortexed immediately before the measurement.
Aggregate formation is reported relative to WT or mutant TTR homotetramer where amount of aggregation in the absence of inhibitor is assigned to be 100%.
Blue bars represent data from an aggregate formation assay wherein tetrameric TTR (3.6 μM) is preincubated with inhibitor (3.6 μM or 7.2 μM) for 30 min prior to lowering the pH to 4.4 (72 h). The Y axis in each bar graph (optical density at 350 nm) represents aggregate formation relative to WT TTR (3.6 μM) assigned as 100%.

[3] = cited from earlier work
[4] = biological target: T1, WT TTR; assay: Isothermal titration calorimetry; assay type: binding
Protocol: The dissociation constants characterizing the binding of genistein to WT TTR were determined using a Microcal isothermal titration calorimeter (Microcal Inc., Northhampton, Mass.). A solution of the small molecule (final concentration 432 μM in 25 mM Tris (pH 8.0) containing 100 mM KCl, 1 mM EDTA, 10% EtOH,) was prepared and titrated into an ITC cell containing WT TTR (12 μM in 25 mM Tris (pH 8.0) containing 100 mM KCl, 1 mM EDTA, 10% EtOH). For all runs, a small preliminary injection was followed by identical injections (2.0-5.0 μL) up to a ligand:protein molar ratio of at least 4:1. The data were fit by a nonlinear least squares approach to either an identical binding sites model, or a sequential interacting binding sites model (Foss, T. R.; et al. J. Mol. Biol. 2005, in press) utilizing Microsoft Excel (Microsoft Corporation, Redmond, Wash.) with the Solver plugin.
Isothermal titration calorimetry was employed to determine the dissociation constants of the binding of genistein to WT TTR at pH 8.0 (25° C.). Integration of the thermogram after subtraction of blanks yielded a binding isotherm that fit equally well to a model of two sequential interacting binding sites with negative cooperativity or two identical non-interacting sites. The fit to sequential binding sites yielded dissociation constants of Kd1=40±25 nM, Kd2=1400±170 nM. Fitting the data to identical binding sites gave Kd1=Kd2=845±45 nM with an occupancy of 1.92±0.07.

[5] = biological target: T2, V30M TTR (Homo sapiens, UniProt P02766, V50M); assay: Urea-mediated tetramer dissociation by far-UV circular dichroism; assay type: biochemical; details: V30M TTR 1.8 μM, 6.0 M urea, after 120 h
T2 construct: made in house; host or cells: E. coli
Protocol: (§1) TTR (400 μL, 0.25 mg/mL; 4.5 μM tetramer) was pre-incubated with genistein at concentrations of either 4.5 or 9.0 μM for 18 h at 25° C. Urea (10M, 600 μL) in 50 mM phosphate buffer (pH 7.0) containing 100 mM KCl, 1 mM EDTA and 1 mM DTT was added to the samples immediately prior to the first measurement (1.0 mL total volume, 6.0 M urea, 0.1 mg/mL TTR (1.8 μM tetramer) final concentration). Circular dichroism spectra were recorded as a function of time up to 120 h (25° C.) using a wavelength scan from 220 to 214 nm, sampling every 0.5 nm. The signal from 218 to 215 was averaged and plotted to determine the fraction of TTR tetramer that was dissociated and unfolded at each time point.
(§2) Genistein was further tested for its ability to kinetically stabilize tetrameric TTR against urea-induced dissociation. Since dissociation of the tetramer is required for urea-induced monomer denaturation, it is possible to monitor rate-limiting tetramer dissociation by linking this process to fast monomer unfolding in a post-transition urea concentration (6 M), rendering the process irreversible. The rate and extent of tetramer dissociation at different small molecule concentrations was monitored by far-UV CD spectroscopy in 6.0 M urea. Genistein exerts its most dramatic effect on the amplitude of WT TTR tetramer dissociation (FIG. 4A). At equimolar amounts of genistein and WT TTR (1.8 μM), only 10% of the protein dissociates and unfolds after 120 h, implying that the remainder is stabilized as a consequence of small molecule binding. This compares to 33% of dissociation for V122I (FIG. 4C, triangles) and 87% V30M (FIG. 4B, triangles) dissociating under identical conditions. When the inhibitor concentration (3.6 μM) is twice that of TTR (1.8 μM), only 1% of WT TTR (FIG. 4A, diamonds), 18% of V122I (FIG. 4C, diamonds), and 70% of V30M (FIG. […]) dissociates over the same time period.
(§3) FIG. 4 illustrates a series of graphs showing the rate of urea-mediated tetramer dissociation (6 M) curves for (A) WT (circles), (B) V30M, and (C) V122I TTR. TTR dissociation is slowed dramatically when WT and the variants are preincubated with genistein (1.8 μM, triangles; 3.6 μM, diamonds). The far-UV CD ellipticity at 214-218 nm was compared to that of WT to determine the fraction of TTR that dissociated and rapidly unfolded at each time point.

[6] = biological target: T3, V122I TTR (Homo sapiens, UniProt P02766, V142I); assay: as above; assay type: biochemical; details: V122I TTR 1.8 μM, 6.0 M urea, after 120 h
T3 construct: made in house; host or cells: E. coli
Protocol: as §1, §2, §3

[7] = biological target: T1, WT TTR; assay: as above; assay type: biochemical; details: WT TTR 1.8 μM, 6.0 M urea, after 120 h
Protocol: as §1, §2, §3

[8] = even at the relatively high concentrations employed; cited from earlier work
[9] = biological target: TTR in human blood plasma (Homo sapiens, UniProt P02766); assay: Plasma selectivity binding to TTR, antibody capture/HPLC method; details: 10.8 μM compound in human plasma, 37° C., 18 h; maximum 2.0; lower limit because of wash losses

O=c1c(-c2ccc(O)cc2)coc2cc(O[C@@H]3O[C@H](CO)[C@@H](O)[C@H](O)[C@H]3O)cc(O)c12 [genistin, reference compound]
permeability, lower than corresponding aglycone (genistein) [1]: approximately 5 fold

O=c1cc(-c2ccc(O)cc2)oc2cc(O)cc(O)c12 [apigenin]
decrease in WT TTR aggregation inhibition relative to genistein ([2]; pH 4.4): 2 fold

O=c1c(-c2ccc(O)cc2)coc2cc(O)cc(O)c12 [genistein]
in vivo plasma concentrations of genistein ([3]; dose of 16 mg/kg of body weight, oral): 0.1 to 8 µM
half-life in plasma ([3]; men): 3.2 h
half-life in plasma ([3]; women): 3.8 h
Kd ([4]; Kd1, two sequential interacting binding sites model (negative cooperativity), pH 8.0, 25° C.): 40 nM
Kd ([4]; Kd1=Kd2, two identical non-interacting sites model, pH 8.0, 25° C.): 845 nM
Kd ([4]; read-out: Kd2, negative cooperativity, ITC): 1400 nM
Kd ([4]; read-out: Kd2, two sequential interacting binding sites model (negative cooperativity), pH 8.0, 25° C.): 1400 nM
protein that dissociates and unfolds ([5]; genistein 1.8 μM): 87%
protein that dissociates and unfolds ([5]; genistein 3.6 μM): 70%
protein that dissociates and unfolds ([6]; genistein 1.8 μM): 33%
protein that dissociates and unfolds ([6]; genistein 3.6 μM): 18%
protein that dissociates and unfolds ([7]; genistein 1.8 μM): 10%
protein that dissociates and unfolds ([7]; genistein 3.6 μM): 1%
intestinal absorption [1]: efficiently absorbed into the intestine
adverse health effects in toxicity studies [8]: does not appear to cause adverse health effects
plasma selectivity: binding stoichiometry to TTR [9]: 1.45 equivalents per tetramer

O=c1c(-c2ccc(O)cc2)coc2cc(O)ccc12 [daidzein, reference compound]
decrease in aggregation inhibition potency relative to genistein ([2]; inhibitor 7.2 μM, twice that of TTR): approximately 4 fold
plasma selectivity: binding stoichiometry to TTR [9]: ≥ 0.75 equivalents per tetramer
